In ChEMBL document CHEMBL5252580, “Ionization and lipophilicity in nonpolar media mimicking the cell membrane interior” (Bioorg Med Chem, 2023):

Tests used:
Format in all cases: physicochemical
[1] = Lipophilicity, log P of the compound in toluene/water system by potentiometric titration method; details: buffer
[2] = Lipophilicity, log D of the compound in octanol/water system at pH 7 by shake-flask assay based HPLC analysis
[3] = Lipophilicity, log P of the compound in octanol/water system by potentiometric titration method
[4] = Lipophilicity, log D of the compound in toluene/water system at pH 7 by potentiometric titration method; details: buffer
[5] = Lipophilicity, log D of the compound in octanol/water system at pH 7 by potentiometric titration method
[6] = Lipophilicity, log D of the compound in toluene/water system at pH 7 by shake-flask assay based HPLC analysis; details: buffer
[7] = Basic ionization constant, pKa of the compound in 100% acetonitrile by UV-vis spectrophotometric titration method
[8] = Lipophilicity, log D of the compound assessed as retention index in nonpolar system in presence of 80% acetonitrile cosolvent by PLRP-S based RP-HPLC analysis
[9] = Ionization constant, pKa of the compound in water in presence of 30 to 35% acetonitrile cosolvent by potentiometric titration method; details: water with 30 to 35% acetonitrile cosolvent
[10] = Ionization constant, pKa of the compound in water in presence of 20 to 27.4% acetonitrile cosolvent by potentiometric titration method; details: water with 20 to 27.4% acetonitrile cosolvent
[11] = Acidic ionization constant, pKa of the compound in water by potentiometric titration method
[12] = Basic ionization constant, pKa of the compound in water by potentiometric titration method
[13] = Ionization constant, pKa of the compound in water in presence of 40 to 42.6% acetonitrile cosolvent by potentiometric titration method; details: water with 40 to 42.6% acetonitrile cosolvent
[14] = Ionization constant, pKa of the compound in water by potentiometric titration method
[15] = Ionization constant, pKa of the compound in water in presence of 80% acetonitrile cosolvent by PLRP-S based RP-HPLC analysis; details: water with 80% acetonitrile cosolvent
[16] = 100% acetonitrile, read-out: pKa

logP [1] | logD [2] | logP ([3]; read-out: logP) | logD [4] | logD [5] | logD [6] | Retention_index [8] | pKa [9] | pKa [10] | pKa [12] | pKa [13] | pKa [14] | pKa [7] | logP [3] | pKa [15] | SMILES | pKa [7, 16] | pKa [11]
0.3 | -1.32 | 3.2 | < 0 | < 0 | < -2.5 |  |  |  |  |  |  |  |  |  | CCCCC(=O)N(Cc1ccc(-c2ccccc2-c2nnn[nH]2)cc1)[C@H](C(=O)O)C(C)C |  | 
 | -0.11 | 0.1 |  | 0.1 | -1.77 | -0.65 | 4.07 | 4.13 | 4.36 | 4.01 |  |  |  |  | Nc1cccc(O)c1 [3-AMINOPHENOL] | 10.4 | 9.82
 |  |  |  |  |  |  |  |  |  |  | 8.68 |  |  |  | NS(=O)(=O)c1cc2c(cc1Cl)NCNS2(=O)=O [HYDROCHLOROTHIAZIDE] |  | 
3.1 | 1.07 |  | 0.2 | 1.3 | -0.43 |  |  |  |  |  |  |  |  |  | CC(C)Cc1ccc(C(C)C(=O)O)cc1 (centres undefined) [IBUPROFEN] |  | 
1.4 | 0.92 |  | 0.8 | 1.1 | 0.89 | 0.22 | 7.78 | 7.88 |  | 7.74 | 7.83 | 16.62 | 3.3 | 5.9 | Cc1cccc(C)c1NC(=O)C1CCCCN1C (centres undefined) [MEPIVACAINE] |  | 

SMILES | logP [1] | logD [2] | logP ([3]; read-out: logP) | logD [4] | logD [5] | logD [6] | Retention_index [8] | pKa [9] | pKa [10] | pKa [12] | pKa [13] | pKa [14] | pKa [7] | logP [3] | pKa [15] | pKa [7, 16] | pKa [11]
CCn1cc(C(=O)O)c(=O)c2ccc(C)nc21 [NALIDIXIC ACID] |  | 0.35 |  |  |  | -0.12 | -0.15 | 7.1 | 6.63 |  | 7.56 |  |  |  |  | 6.17 | 6.25
